This experiment addresses T1, PAPD5 (Homo sapiens, UniProt Q8NDF8).
T1 construct: made in house
The experiment in a line: High-throughput luminescence (KinaseGlo) RNA polyadenylation assay, ATP utilization by recombinant PAPD5. The experiment is classed as biochemical. The conditions noted are these: Table 4 (entries of Table 5), ratio of luminescence with inhibitor to DMSO; for Fold-change determined at compound concentration 10 μM: 10 μM compound; for Fold-change determined at compound concentration 33 μM: 33 μM compound; for Fold-change determined at compound concentration 100 μM: 100 μM compound, higher = higher inhibition. A digest of the protocol: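 Values are ratios of inhibitor to DMSO luminescence, so larger numbers mean less ATP consumed. Screening was run in duplicate with a 2 h room-temperature reaction of recombinant PAPD5, ATP and oligo RNA substrate plus compound. Residual ATP was detected after a 10 min KinaseGlo step.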

T1 sequence (Q8NDF8 68-698 isoform Q8NDF8-5): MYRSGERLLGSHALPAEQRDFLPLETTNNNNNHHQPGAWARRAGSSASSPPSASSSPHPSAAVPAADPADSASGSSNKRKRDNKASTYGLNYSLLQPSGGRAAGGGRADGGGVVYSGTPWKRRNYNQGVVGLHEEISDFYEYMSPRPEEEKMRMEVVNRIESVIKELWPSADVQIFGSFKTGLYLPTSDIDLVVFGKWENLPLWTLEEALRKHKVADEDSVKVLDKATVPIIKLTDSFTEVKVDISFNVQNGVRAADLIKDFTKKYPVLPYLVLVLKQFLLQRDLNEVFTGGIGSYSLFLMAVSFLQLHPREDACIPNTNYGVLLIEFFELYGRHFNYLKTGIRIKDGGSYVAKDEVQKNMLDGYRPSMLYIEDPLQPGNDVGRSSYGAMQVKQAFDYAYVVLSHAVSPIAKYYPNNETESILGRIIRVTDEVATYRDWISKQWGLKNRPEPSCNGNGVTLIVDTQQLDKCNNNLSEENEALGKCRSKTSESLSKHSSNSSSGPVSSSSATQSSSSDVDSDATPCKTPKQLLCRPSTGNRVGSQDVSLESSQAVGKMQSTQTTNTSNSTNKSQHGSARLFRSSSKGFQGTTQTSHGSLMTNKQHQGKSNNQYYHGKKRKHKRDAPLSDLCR

Take `COc1ccc(-c2nc(N3CCOCC3)c3sc(CN(C)c4ncc(C(=O)NO)cn4)cc3n2)cn1` [Entry 42, N-hydroxy-2-[[2-(6-methoxypyridin-3-yl)-4-morpholin-4-ylthieno[3,2-d]pyrimidin-6-yl]methyl-methylamino]pyrimidine-5-carboxamide]: the “Fold-change determined at compound concentration 10 μM” value was found to be 1.382, the “Fold-change determined at compound concentration 33 μM” value came to 1.905 and the “Fold-change determined at compound concentration 100 μM” value is 2.528.
In the case of `COC(=O)c1cnn2c(=O)cc(CS(=O)(=O)c3ccc(C)cc3C)[nH]c12` [Entry 188, Methyl 5-{[(2,4-dimethylphenyl)sulfonyl]methyl}-7-oxo-4,7-dihydropyrazolo[1,5-a]pyrimidine-3-carboxylate], the “Fold-change determined at compound concentration 33 μM” value stood at 1.089 and the “Fold-change determined at compound concentration 100 μM” value was 1.29.
For `O=C(O)C1CCCN(c2ncnc3c2oc2ccccc23)C1` (centres unmarked) [Entry 35, 1-[1]benzofuro[3,2-d]pyrimidin-4-ylpiperidine-3-carboxylic acid], in that order: 1.04 and 1.287.
Taken in the same sequence, the figures for `N#Cc1c[nH]n2c(NC3CCCCC3)c(-c3ccccc3F)nc12` [Entry 235, 3-(cyclohexylamino)-2-(2-fluorophenyl)-5H-imidazo[1,2-b]pyrazole-7-carbonitrile] were 1.177 and 1.452.
Taken in the same sequence, the figures for `CCn1c(SCC(=O)O)nc2c(=O)n(C)c(=O)n(C)c21` [Entry 77, 2-(9-ethyl-1,3-dimethyl-2,6-dioxopurin-8-yl)sulfanylacetic acid] were 1.142 and 1.419.
`CCN(CC)CCNC(=O)c1ccc(Cn2c(=O)c3cccn3c3cccnc32)cc1` [Entry 69, N-(2-(diethylamino)ethyl)-4-((6-oxopyrido[2,3-e]pyrrolo[1,2-a]pyrazin-5(6H)-yl)methyl)benzamide]: the “Fold-change determined at compound concentration 33 μM” value came to 1.116 and the “Fold-change determined at compound concentration 100 μM” value is 1.223.
Taken in the same sequence, the figures for `COc1cc2[nH]c3c(SCC(N)=O)ncnc3c2cc1OC` [Entry 224, 2-[(7,8-dimethoxy-5H-pyrimido[5,4-b]indol-4-yl)sulfanyl]acetamide] were 1.193 and 1.37.
For `CCOc1ccc(-c2noc(Cn3cnc4c(cnn4-c4ccccc4)c3=O)n2)cc1OC` [Entry 217, 5-[[3-(4-ethoxy-3-methoxyphenyl)-1,2,4-oxadiazol-5-yl]methyl]-1-phenylpyrazolo[3,4-d]pyrimidin-4-one], in that order: 1.114 and 1.245.
For `CC(C)c1nnc2ccc(N3CCN(C)CC3)nn12` [Entry 50, 3-isopropyl-6-(4-methylpiperazino)[1,2,4]triazolo[4,3-b]pyridazine], in that order: 1.336 and 2.083.
`Cc1ccccc1CSc1nc(=O)c2[nH]cnc2[nH]1` [Entry 163, 2-[(2-methylphenyl)methylsulfanyl]-3,7-dihydropurin-6-one]: the “Fold-change determined at compound concentration 33 μM” value is on record as 1.109 and the “Fold-change determined at compound concentration 100 μM” value is given as 1.287.
With `Cc1nn(-c2ccc(Cl)cc2)c2sc(C(=O)O)cc12` [Entry 204, 1-(4-Chloro-phenyl)-3-methyl-1H-thieno[2,3-c]pyrazole-5-carboxylic acid], the “Fold-change determined at compound concentration 33 μM” value is reported as 1.073 and the “Fold-change determined at compound concentration 100 μM” value is 1.229.
As to `CCOc1ccccc1CNC(=O)Nc1cn(CC(C)C)c(=O)c2ccccc12` [Entry 59, 1-[(2-ethoxyphenyl)methyl]-3-[2-(2-methylpropyl)-1-oxoisoquinolin-4-yl]urea], the “Fold-change determined at compound concentration 33 μM” value is listed as 1.113 and the “Fold-change determined at compound concentration 100 μM” value came out at 1.69.
For `CCOC(=O)c1ccc(NC(=O)CCc2c(C)nc3c(c(C)nn3C)c2C)cc1` [Entry 184, ethyl 4-[3-(1,3,4,6-tetramethylpyrazolo[3,4-b]pyridin-5-yl)propanoylamino]benzoate], in that order: 1.245 and 1.294.
Taken in the same sequence, the figures for `O=C(O)c1cccc(Nc2c(-c3cc(Br)ccc3O)nc3cnccn23)c1` [Entry 193, 3-{[2-(5-bromo-2-hydroxyphenyl)imidazo[1,2-a]pyrazin-3-yl]amino}benzoic acid] were 1.134 and 1.446.
Taken in the same sequence, the figures for `Cc1ccc(-c2nnc(Nc3ccc(OCC(N)=O)cc3)c3ccccc23)cc1S(=O)(=O)N(C)C` [Entry 54, 2-[4-({4-[3-(dimethylsulfamoyl)-4-methylphenyl]phthalazin-1-yl}amino)phenoxy]acetamide] were 1.324 and 1.562.
For the molecule `Cc1ccc2[nH]c(=O)c3cc(C(=O)O)sc3c2c1` [Entry 220, 8-methyl-4-oxo-5H-thieno[3,2-c]quinoline-2-carboxylic acid], the “Fold-change determined at compound concentration 33 μM” value was determined as 1.068 and the “Fold-change determined at compound concentration 100 μM” value is 1.277.
For the molecule `CCOC(=O)c1c(NC(=O)CSc2n[nH]c3nc(=O)cc(C)n23)sc2c1CCCCC2` [Entry 200, ethyl 2-[[2-[(5-methyl-7-oxo-1H-[1,2,4]triazolo[4,3-a]pyrimidin-3-yl)sulfanyl]acetyl]amino]-5,6,7,8-tetrahydro-4H-cyclohepta[b]thiophene-3-carboxylate], the “Fold-change determined at compound concentration 33 μM” value stood at 1.038 and the “Fold-change determined at compound concentration 100 μM” value was 1.414.
Taken in the same sequence, the figures for `Cc1ccc(C(=O)Nc2c(-c3ccccc3)nc3ccccn23)cc1C` [Entry 189, 3,4-dimethyl-N-(2-phenylimidazo[1,2-a]pyridin-3-yl)benzamide] were 1.206 and 1.311.
Taken in the same sequence, the figures for `Cn1[nH]c(-c2cccnc2)c2nc(-c3ccccc3OC(F)F)nc1-2` [Entry 227, 5-[2-(difluoromethoxy)phenyl]-1-methyl-3-pyridin-3-yl-2H-imidazo[4,5-c]pyrazole] were 1.097 and 1.425.
On to `CCCCN(CCCC)CCCNC(=O)c1ccc2c(c1)sc1nc(-c3ccc(OC)cc3)cn12` [Entry 186, N-[3-(dibutylamino)propyl]-2-(4-methoxyphenyl)imidazo[2,1-b][1,3]benzothiazole-7-carboxamide], for which the “Fold-change determined at compound concentration 33 μM” value was 1.163 and the “Fold-change determined at compound concentration 100 μM” value amounted to 1.531.
For `O=c1cc(-c2cccc3c2Sc2ccccc2S3)oc(N2CCOCC2)c1` [Entry 243, 2-morpholin-4-yl-6-thianthren-1-ylpyran-4-one], in that order: 1.324 and 1.471.
With `COc1c2[nH]c3occc3c(OC)c-2ccc1=O` [Entry 91, 4,8-dimethoxy-9H-furo[2,3-b]quinolin-7-one], the “Fold-change determined at compound concentration 33 μM” value is 1.197 and the “Fold-change determined at compound concentration 100 μM” value came out at 1.537.
Regarding `CCSc1nnc(NC(=O)c2cc(=O)c3cc(C)c(C)cc3o2)s1` [Entry 124, N-(5-ethylsulfanyl-1,3,4-thiadiazol-2-yl)-6,7-dimethyl-4-oxochromene-2-carboxamide], the “Fold-change determined at compound concentration 10 μM” value amounted to 1.241, the “Fold-change determined at compound concentration 33 μM” value amounted to 1.437 and the “Fold-change determined at compound concentration 100 μM” value came out at 1.858.
With `Clc1ccc(Nc2nnc(Cc3ccncc3)c3ccccc23)cc1` [Entry 52, N-(4-chlorophenyl)-4-(pyridin-4-ylmethyl)phthalazin-1-amine], the “Fold-change determined at compound concentration 33 μM” value is listed as 1.133 and the “Fold-change determined at compound concentration 100 μM” value is recorded as 1.275.
Taken in the same sequence, the figures for `O=C(O)Cc1c2ccccc2n2c1[nH]c(=O)c1ccccc12` [Entry 222, 2-(5-oxo-6H-indolo[1,2-a]quinazolin-7-yl)acetic acid] were 1.05 and 1.205.
Taken in the same sequence, the figures for `CC(C)n1cnc2c(Nc3ccc(C(=O)O)cc3)nc(Cl)nc21` [Entry 47, 4-[(2-chloro-9-propan-2-ylpurin-6-yl)amino]benzoic acid] were 1.095 and 1.393.
For “3-{7-Oxo-2.8.10- triazatricyclo[7.4.0.02,6]trideca- 1(13),3,5,9,11-pentaen-8-yl}propionic acid [Entry 68]”, in that order: 1.162 and 1.389.
Consider `COc1cccc(NC(=O)c2ccc3c(=O)n4nc(Nc5ccccc5OC)sc4nc3c2)c1` [Entry 218, 2-(2-methoxyanilino)-N-(3-methoxyphenyl)-5-oxo-[1,3,4]thiadiazolo[2,3-b]quinazoline-8-carboxamide], for which the “Fold-change determined at compound concentration 33 μM” value stood at 1.096 and the “Fold-change determined at compound concentration 100 μM” value is 1.304.
On to `Cc1ccc(Cl)cc1NCc1nc2[nH]c3c(c(=O)n2n1)CCC3` [Entry 154, 2-{[(5-chloro-2-methylphenyl)amino]methyl}-4,5,6,7-tetrahydro-8H-cyclopenta[d][1,2,4]triazolo[1,5-a]pyrimidin-8-one], for which the “Fold-change determined at compound concentration 33 μM” value was found to be 1.013 and the “Fold-change determined at compound concentration 100 μM” value stood at 1.282.
For `O=c1c(S(=O)(=O)c2cccc(F)c2)c[nH]c2c(F)ccc(Cl)c12` [Entry 105, 5-chloro-8-fluoro-3-(3-fluorophenyl)sulfonyl-1H-quinolin-4-one], in that order: 1.16 and 1.333.

The record behind these values is patent US12171755B2, “PAPD5 inhibitors and methods of use thereof” (Children's Medical Center Corporation, priority 2017, dated 2024).
